# Assay results published in patent publication US7473688B2, “Indolobenzazepine HCV NS5B inhibitors” (Bristol-Myers Squibb Company, priority 2005, dated 2009).
# Molecular target: T1, HCV NS5B (Hepatitis C virus genotype 1b, UniProt Q9WMX2)
# T1 construct: The protein was expressed with an 18 amino acid C-terminal truncation to enhance the solubility; made in house; host or cells: E. coli BL21 (DE3), pET21a
# Experiment: HCV NS5B RdRp enzyme assay (preincubation protocol)
# Format: biochemical
# Conditions: Table 1, read-out: IC50*
# Procedure: HCV NS5B RdRp cloning, expression, and purification. The cDNA encoding the NS5B protein of HCV, genotype 1b, was cloned into the pET21a expression vector. The protein was expressed with an 18 amino acid C-terminal truncation to enhance the solubility. The E. coli competent cell line BL21 (DE3) was used for expression of the protein. Cultures were grown at 37° C. for ˜4 hours until the cultures reached an optical density of 2.0 at 600 nm. The cultures were cooled to 20° C. and induced with 1 mM IPTG. Fresh ampicillin was added to a final concentration of 50 μg/ml and the cells were grown overnight at 20° C.
# Cell pellets (3L) were lysed for purification to yield 15-24 mgs of purified NS5B. The lysis buffer consisted of 20 mM Tris-HCl, pH 7.4, 500 mM NaCl, 0.5% triton X-100, 1 mM DTT, 1 mM EDTA, 20% glycerol, 0.5 mg/ml lysozyme, 10 mM MgCl2, 15 ug/ml deoxyribonuclease I, and Complete TM protease inhibitor tablets (Roche). After addition of the lysis buffer, frozen cell pellets were resuspended using a tissue homogenizer. To reduce the viscosity of the sample, aliquots of the lysate were sonicated on ice using a microtip attached to a Branson sonicator. The sonicated lysate was centrifuged at 100,000×g for 1 hr at 4° C. and filtered through a 0.2 μm filter unit (Corning).
# The protein was purified using three sequential chromatography steps: Heparin sepharose CL-6B, polyU sepharose 4B, and Hitrap SP sepharose (Pharmacia). The chromatography buffers were identical to the lysis buffer but contained no lysozyme, deoxyribonuclease I, MgCl2 or protease inhibitor and the NaCl concentration of the buffer was adjusted according to the requirements for charging the protein onto the column. Each column was eluted with a NaCl gradient which varied in length from 5-50 column volumes depending on the column type. After the final chromatography step, the resulting purity of the enzyme is >90% based on SDS-PAGE analysis. The enzyme was aliquoted and stored at −80° C.
# Standard HCV NS5B RdRp enzyme assay. HCV RdRp genotype 1b assays were run in a final volume of 60 μl in 96 well plates (Costar 3912). The assay buffer is composed of 20 mM Hepes, pH 7.5, 2.5 mM KCl, 2.5 mM MgCl2, 1 mM DTT, 1.6 U RNAse inhibitor (Promega N2515), 0.1 mg/ml BSA (Promega R3961), and 2% glycerol. All compounds were serially diluted (3-fold) in DMSO and diluted further in water such that the final concentration of DMSO in the assay was 2%. HCV RdRp genotype 1b enzyme was used at a final concentration of 28 nM. A polyA template was used at 6 nM, and a biotinylated oligo-dT12 primer was used at 180 nM final concentration. Template was obtained commercially (Amersham 27-4110). Biotinylated primer was prepared by Sigma Genosys. 3H-UTP was used at 0.6 μCi (0.29 μM total UTP). Reactions were initiated by the addition of enzyme, incubated at 30° C. for 60 min, and stopped by adding […] of 50 mM EDTA containing SPA beads (4 μg/μl, Amersham RPNQ 0007). Plates were read on a Packard Top Count NXT after >1 hr incubation at room temperature.
# Modified HCV NS5B RdRp enzyme assay. A modified enzyme assay was performed essentially as described for the standard enzyme assay except for the following: The biotinylated oligo dT12 primer was precaptured on streptavidin-coated SPA beads by mixing primer and beads in assay buffer and incubating at room temperature for one hour. Unbound primer was removed after centrifugation. The primer-bound beads were resuspended in 20 mM Hepes buffer, pH 7.5 and used in the assay at final concentrations of […] primer and 0.67 μg/μl beads. Order of addition in the assay: Enzyme (14 nM) was added to diluted compound followed by the addition of a mixture of template (0.2 nM), 3H-UTP (0.6 μCi, 0.29 μM), and primer-bound beads, to initiate the reaction; concentrations given are final. Reactions were allowed to proceed for 4 hours at 30° C.
# IC50 values for compounds were determined using seven different [I]. […]
# T1 sequence (Q9WMX2 2420-2992): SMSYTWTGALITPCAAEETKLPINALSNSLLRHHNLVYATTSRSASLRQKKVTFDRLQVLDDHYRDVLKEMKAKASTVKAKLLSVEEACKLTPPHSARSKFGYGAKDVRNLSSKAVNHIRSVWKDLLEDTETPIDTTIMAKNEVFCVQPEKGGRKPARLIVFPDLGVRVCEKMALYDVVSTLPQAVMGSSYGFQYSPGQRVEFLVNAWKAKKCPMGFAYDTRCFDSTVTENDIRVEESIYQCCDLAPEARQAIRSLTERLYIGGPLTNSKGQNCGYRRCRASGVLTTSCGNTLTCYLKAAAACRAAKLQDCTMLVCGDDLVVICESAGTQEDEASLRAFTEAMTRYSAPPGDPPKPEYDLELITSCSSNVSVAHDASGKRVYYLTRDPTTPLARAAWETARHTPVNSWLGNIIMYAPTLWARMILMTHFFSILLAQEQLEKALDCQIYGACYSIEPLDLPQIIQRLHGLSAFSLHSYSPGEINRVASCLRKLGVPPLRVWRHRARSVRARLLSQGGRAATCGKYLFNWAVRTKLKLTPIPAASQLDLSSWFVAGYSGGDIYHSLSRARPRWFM
row,SMILES,IC50
1,COC(=O)c1ccc2c(C3CCCCC3)c3n(c2c1)CC(C(=O)N1CCC(N2CC[C@H](F)C2)CC1)=Cc1ccccc1-3,> 1 µM

# Same assay, conditions: Table 1a, read-out: IC50*
row,SMILES,IC50
1,COC(=O)c1ccc2c(C3CCCCC3)c3n(c2c1)CC(NC(=O)OC(C)(C)C)Cc1ccccc1-3 (stereo not shown),0.01 to 1 µM
2,C=CCNC(=O)N1CCN(C(=O)C2=Cc3ccccc3-c3c(C4CCCCC4)c4ccc(C(=O)NS(=O)(=O)N(C)C)cc4n3C2)CC1,0.01 to 1 µM
3,CNC(=O)N1CCN(C(=O)C2=Cc3ccccc3-c3c(C4CCCCC4)c4ccc(C(=O)NS(=O)(=O)N(C)C)cc4n3C2)CC1,0.01 to 1 µM
4,O=C(NC[C@@H]1CCCO1)c1ccc2c(C3CCCCC3)c3n(c2c1)CC(C(=O)N1CCC(N2CCOCC2)CC1)=Cc1ccccc1-3,0.01 to 1 µM
5,COc1ccc2c(c1)CC(C(=O)N(C)CC(=O)N(C)C)Cn1c-2c(C2CCCCC2)c2ccc(C(=O)NS(=O)(=O)N(C)C)cc21 (stereo not shown),0.01 to 1 µM
6,CNC(=O)CNC(=O)C1=Cc2cc(OC)ccc2-c2c(C3CCCCC3)c3ccc(C(=O)O)cc3n2C1,0.01 to 1 µM
7,CN(C)C(=O)CNC(=O)c1ccc2c(C3CCCCC3)c3n(c2c1)CC(C(=O)N1CCC(N2CCOCC2)CC1)=Cc1ccccc1-3,0.01 to 1 µM
8,CNC(=O)CNC(=O)C1=Cc2cc(OC)ccc2-c2c(C3CCCCC3)c3ccc(C(=O)NS(=O)(=O)N(C)C)cc3n2C1,0.01 to 1 µM
9,O=C(NCCc1nc2ccccc2[nH]1)c1ccc2c(C3CCCCC3)c3n(c2c1)CC(C(=O)N1CCC(N2CCOCC2)CC1)=Cc1ccccc1-3,0.01 to 1 µM
10,COC(=O)c1ccc2c(C3CCCCC3)c3n(c2c1)CC(NC(=O)NC1CCN(C(=O)C(F)(F)F)CC1)Cc1ccccc1-3 (stereo not shown),> 1 µM
11,CN1CCN(C(=O)C2=Cc3ccccc3-c3c(C4CCCCC4)c4ccc(C(=O)NS(=O)(=O)N(C)C)cc4n3C2)CC1=O,0.01 to 1 µM
12,CN(C)C(=O)CN(C)C(=O)C1=Cc2ccccc2-c2c(C3CCCCC3)c3ccc(C(=O)O)cc3n2C1,0.01 to 1 µM
13,COc1ccc2c(c1)C=C(C(=O)N(C)CC(=O)O)Cn1c-2c(C2CCCCC2)c2ccc(C(=O)O)cc21,0.01 to 1 µM
14,COc1ccc2c(c1)C=C(C(=O)N(C)CC(=O)N1CCOCC1)Cn1c-2c(C2CCCCC2)c2ccc(C(=O)O)cc21,0.01 to 1 µM
15,CN(C)C(=O)CN(C)C(=O)C1=Cc2ccccc2-c2c(C3CCCCC3)c3ccc(C(=O)NS(=O)(=O)N(C)C)cc3n2C1,0.01 to 1 µM
16,COc1ccc2c(c1)C=C(C(=O)N1CCC[C@@H](OC(C)=O)C1)Cn1c-2c(C2CCCCC2)c2ccc(C(=O)NS(=O)(=O)N(C)C)cc21,0.01 to 1 µM
17,CN(C)C(=O)C1CCN(C(=O)C2=Cc3ccccc3-c3c(C4CCCCC4)c4ccc(C(=O)NS(=O)(=O)N(C)C)cc4n3C2)CC1,0.01 to 1 µM
18,COc1ccc2c(c1)C=C(C(=O)N(C)CC(=O)N1CCOCC1)Cn1c-2c(C2CCCCC2)c2ccc(C(=O)NS(=O)(=O)N(C)C)cc21,0.01 to 1 µM
19,COc1ccc2c(c1)C=C(C(=O)N1C[C@@H](C)O[C@@H](C)C1)Cn1c-2c(C2CCCCC2)c2ccc(C(=O)NS(=O)(=O)N3CCN(C)CC3)cc21,0.01 to 1 µM
20,COc1ccc2c(c1)C=C(C(=O)N1CCN(C)C(=O)C1)Cn1c-2c(C2CCCCC2)c2ccc(C(=O)NS(=O)(=O)N(C)C)cc21,0.01 to 1 µM
21,CCN(CC)C(=O)CN(C)C(=O)C1=Cc2cc(OC)ccc2-c2c(C3CCCCC3)c3ccc(C(=O)NS(=O)(=O)N(C)C)cc3n2C1,0.01 to 1 µM
22,COCCNC(=O)CN(C)C(=O)C1=Cc2cc(OC)ccc2-c2c(C3CCCCC3)c3ccc(C(=O)NS(=O)(=O)N(C)C)cc3n2C1,0.01 to 1 µM
23,COC(=O)c1ccc2c(C3CCCCC3)c3n(c2c1)CC(NC(=O)C1CCCC(OC)C1)Cc1ccccc1-3 (stereo not shown),> 1 µM

row,SMILES,IC50
1,COc1ccc2c(c1)CC(C(=O)N(C)CC1CCCO1)Cn1c-2c(C2CCCCC2)c2ccc(C(=O)NS(=O)(=O)N(C)C)cc21 (stereo not shown),0.01 to 1 µM
2,COc1ccc2c(c1)CC(C(=O)N(C)CC1CCCO1)Cn1c-2c(C2CCCCC2)c2ccc(C(=O)O)cc21 (stereo not shown),0.01 to 1 µM
3,COC(=O)c1ccc2c(C3CCCCC3)c3n(c2c1)CC(C(=O)NCC1CCCO1)Cc1cc(OC)ccc1-3 (stereo not shown),> 1 µM
4,COc1ccc2c(c1)C=C(C(=O)N1CCC[C@H](OC(C)=O)C1)Cn1c-2c(C2CCCCC2)c2ccc(C(=O)NS(=O)(=O)N(C)C)cc21,0.01 to 1 µM
5,COc1ccc2c(c1)C=C(C(=O)N1CCC(C(=O)N(C)C)CC1)Cn1c-2c(C2CCCCC2)c2ccc(C(=O)NS(=O)(=O)N(C)C)cc21,0.01 to 1 µM
6,COc1ccc2c(c1)CC(N(C)C(=O)N1C[C@@H](C)O[C@@H](C)C1)Cn1c-2c(C2CCCCC2)c2ccc(C(=O)O)cc21 (stereo partly shown),0.01 to 1 µM
7,COCCNC(=O)CN(C)C(=O)C1Cc2cc(OC)ccc2-c2c(C3CCCCC3)c3ccc(C(=O)NS(=O)(=O)N(C)C)cc3n2C1 (stereo not shown),0.01 to 1 µM
8,CCN(CC)C(=O)CN(C)C(=O)C1Cc2cc(OC)ccc2-c2c(C3CCCCC3)c3ccc(C(=O)NS(=O)(=O)N(C)C)cc3n2C1 (stereo not shown),0.01 to 1 µM
9,COc1ccc2c(c1)CC(N(C)C(=O)N1C[C@@H](C)O[C@@H](C)C1)Cn1c-2c(C2CCCCC2)c2ccc(C(=O)NS(=O)(=O)N(C)C)cc21 (stereo partly shown),0.01 to 1 µM
10,COC1CCCC(C(=O)N(C)C2Cc3ccccc3-c3c(C4CCCCC4)c4ccc(C(=O)NS(=O)(=O)N(C)C)cc4n3C2)C1 (stereo not shown),0.01 to 1 µM
11,COC1CCCC(C(=O)N(C)C2Cc3ccccc3-c3c(C4CCCCC4)c4ccc(C(=O)O)cc4n3C2)C1 (stereo not shown),0.01 to 1 µM
12,COC(=O)c1ccc2c(C3CCCCC3)c3n(c2c1)CC(NC(=O)C1CCOCC1)Cc1cc(OC)ccc1-3 (stereo not shown),0.01 to 1 µM
13,COc1ccc2c(c1)C=C(C(=O)N1CCN(C(=O)CN)CC1)Cn1c-2c(C2CCCCC2)c2ccc(C(=O)NS(=O)(=O)N(C)C)cc21,< 0.02 µM
14,COc1ccc2c(c1)CC(C(=O)N1CCN(C(=O)N(C)C)CC1)Cn1c-2c(C2CCCCC2)c2ccc(C(=O)NS(=O)(=O)N(C)C)cc21 (stereo not shown),0.01 to 1 µM
15,COC(=O)c1ccc2c(C3CCCCC3)c3n(c2c1)CC(C(=O)N1C[C@@H](C)N(C)[C@@H](C)C1)=Cc1cc(F)ccc1-3,0.01 to 1 µM
16,COc1ccc2c(c1)CC(N(C)C(=O)C1CCOCC1)Cn1c-2c(C2CCCCC2)c2ccc(C(=O)NS(=O)(=O)N(C)C)cc21 (stereo not shown),0.01 to 1 µM
17,COc1ccc2c(c1)CC(N(C)C(=O)C1CCOCC1)Cn1c-2c(C2CCCCC2)c2ccc(C(=O)O)cc21 (stereo not shown),< 0.02 µM
18,CC(=O)NC1Cc2ccccc2-c2c(C3CCCCC3)c3ccc(C(=O)NS(=O)(=O)N(C)C)cc3n2C1 (stereo not shown),0.01 to 1 µM
19,COc1ccc2c(c1)C=C(C(=O)N1CCC(C(=O)N(C)C)CC1)Cn1c-2c(C2CCCCC2)c2ccc(C(=O)NS(=O)(=O)N3CCN(C)CC3)cc21,0.01 to 1 µM
20,C[C@@H]1CN(C(=O)C2=Cc3ccccc3-c3c(C4CCCCC4)c4ccc(C(=O)NS(=O)(=O)OCC(C)(C)C)cc4n3C2)C[C@H](C)O1,0.01 to 1 µM
21,C[C@@H]1CN(C(=O)C2=Cc3cc(F)ccc3-c3c(C4CCCCC4)c4ccc(C(=O)O)cc4n3C2)C[C@H](C)N1C,0.01 to 1 µM
22,COc1ccc2c(c1)C=C(C(=O)N1C[C@@H](C)N(C)[C@@H](C)C1)Cn1c-2c(C2CCCCC2)c2ccc(C(=O)NS(=O)(=O)N(C)C)cc21,0.01 to 1 µM
